For 6 compounds, TD50 and carcinogen call results are on record in PubChem BioAssay AID1745844 (Carcinogenic Potency Database (CPDB), 2022).

Activity calls are given as the source filed them. No rule for the calls is given here.

The series deals with rodent lifetime carcinogenesis bioassay, tumor incidence TD50. As to the kind of experiment: chronic cancer bioassays in animals – CPDB, compiled studies (AID 1745844).

The term TD50 denotes the dose at which the toxic effect under study appears in half of the subjects. Take `O=C(O)C=Cc1ccc(O)c(O)c1`: the TD50 is 1900 mg/kg/day (mouse, strain B6C3F1, females, in feed, site: any site (literature study), lesion: one or several types, types not named, dosed 96 weeks, study length 96 weeks); 43300 mg/kg/day (mouse, strain B6C3F1, females, in feed, site: forestomach, lesion: squamous-cell carcinoma, dosed 96 weeks, study length 96 weeks); 4700 mg/kg/day (mouse, strain B6C3F1, females, in feed, site: kidney, lesion: tubular-cell adenoma, dosed 96 weeks, study length 96 weeks); 3210 mg/kg/day (mouse, strain B6C3F1, males, in feed, site: any site (literature study), lesion: one or several types, types not named, dosed 96 weeks, study length 96 weeks); 9790 mg/kg/day (mouse, strain B6C3F1, males, in feed, site: forestomach, lesion: papilloma, dosed 96 weeks, study length 96 weeks); 5270 mg/kg/day (mouse, strain B6C3F1, males, in feed, site: forestomach, lesion: several types, types named in the paper, dosed 96 weeks, study length 96 weeks). Further, the TD50 is 13300 mg/kg/day (mouse, strain B6C3F1, males, in feed, site: forestomach, lesion: squamous-cell carcinoma, dosed 96 weeks, study length 96 weeks); 6110 mg/kg/day (mouse, strain B6C3F1, males, in feed, site: lung, lesion: alveolar-cell adenoma, dosed 96 weeks, study length 96 weeks); 41300 mg/kg/day (mouse, strain B6C3F1, males, in feed, site: lung, lesion: alveolar-cell carcinoma, dosed 96 weeks, study length 96 weeks); 5120 mg/kg/day (mouse, strain B6C3F1, males, in feed, site: lung, lesion: several types, types named in the paper, dosed 96 weeks, study length 96 weeks); 312 mg/kg/day (rat, strain F344/DuCrj, females, in feed, site: any site (literature study), lesion: one or several types, types not named, dosed 104 weeks, study length 104 weeks); 426 mg/kg/day (rat, strain F344/DuCrj, females, in feed, site: forestomach, lesion: papilloma, dosed 104 weeks, study length 104 weeks). Also, the TD50 (rat, strain F344/DuCrj, females, in feed, site: forestomach, lesion: several types, types named in the paper, dosed 104 weeks, study length 104 weeks) was 298 mg/kg/day; the TD50 (rat, strain F344/DuCrj, females, in feed, site: forestomach, lesion: squamous-cell carcinoma, dosed 104 weeks, study length 104 weeks) was determined as 989 mg/kg/day; the TD50 (rat, strain F344/DuCrj, males, in feed, site: forestomach, lesion: papilloma, dosed 104 weeks, study length 104 weeks) was 377 mg/kg/day; the TD50 (rat, strain F344/DuCrj, males, in feed, site: forestomach, lesion: several types, types named in the paper, dosed 104 weeks, study length 104 weeks) was 272 mg/kg/day; the TD50 (rat, strain F344/DuCrj, males, in feed, site: forestomach, lesion: squamous-cell carcinoma, dosed 104 weeks, study length 104 weeks) amounted to 656 mg/kg/day; the TD50 (rat, strain F344/DuCrj, males, in feed, site: forestomach, lesion: squamous-cell papilloma, dosed 51 weeks, study length 52 weeks) was 217 mg/kg/day. Also, the TD50 is 542 mg/kg/day (rat, strain F344/DuCrj, males, in feed, site: forestomach, lesion: squamous-cell papilloma, dosed 60 weeks, study length 60 weeks) and 3830 mg/kg/day (rat, strain F344/DuCrj, males, in feed, site: kidney, lesion: tubular-cell adenoma, dosed 104 weeks, study length 104 weeks).
For `COC(=O)C(C)(C)Oc1ccc(-c2ccc(Cl)cc2)cc1`, the TD50 is, setting by setting: (mouse, strain AP Alderly Park, females, in feed, site: liver, lesion: hepatocellular adenoma, dosed 78 weeks, study length 78 weeks) 2.27 mg/kg/day; (mouse, strain AP Alderly Park, females, in feed, site: liver, lesion: hepatocellular carcinoma, dosed 78 weeks, study length 78 weeks) 8.3 mg/kg/day; (mouse, strain AP Alderly Park, females, in feed, site: liver, lesion: several types, types named in the paper, dosed 52 weeks, study length 78 weeks) 25 mg/kg/day; (mouse, strain AP Alderly Park, females, several routes, site: liver, lesion: hepatocellular adenoma, dosed 78 weeks, study length 78 weeks) 48.5 mg/kg/day; (mouse, strain AP Alderly Park, females, several routes, site: liver, lesion: hepatocellular carcinoma, dosed 78 weeks, study length 78 weeks) 13.4 mg/kg/day; (mouse, strain AP Alderly Park, females, several routes, site: lung, lesion: adenoma, dosed 78 weeks, study length 78 weeks) 890 mg/kg/day. Moreover, the TD50 by setting is: (mouse, strain AP Alderly Park, males, in feed, site: liver, lesion: hepatocellular adenoma, dosed 78 weeks, study length 78 weeks) 2.75 mg/kg/day; (mouse, strain AP Alderly Park, males, in feed, site: liver, lesion: hepatocellular carcinoma, dosed 78 weeks, study length 78 weeks) 0.858 mg/kg/day; (mouse, strain AP Alderly Park, males, in feed, site: liver, lesion: several types, types named in the paper, dosed 26 weeks, study length 78 weeks) 2.08 mg/kg/day; (mouse, strain AP Alderly Park, males, in feed, site: liver, lesion: several types, types named in the paper, dosed 52 weeks, study length 78 weeks) 5.94 mg/kg/day; (mouse, strain AP Alderly Park, males, several routes, site: liver, lesion: hepatocellular carcinoma, dosed 78 weeks, study length 78 weeks) 16.8 mg/kg/day; (rat, strain Alpk:APfSD, females, in feed, site: liver, lesion: hepatocellular adenoma, dosed 104 weeks, study length 104 weeks) 460 mg/kg/day. For the same compound, the TD50 is 5.88 mg/kg/day (rat, strain Alpk:APfSD, females, in feed, site: liver, lesion: hepatocellular carcinoma, dosed 104 weeks, study length 104 weeks); 17.4 mg/kg/day (rat, strain Alpk:APfSD, males, in feed, site: liver, lesion: hepatocellular adenoma, dosed 104 weeks, study length 104 weeks); 2.87 mg/kg/day (rat, strain Alpk:APfSD, males, in feed, site: liver, lesion: hepatocellular carcinoma, dosed 104 weeks, study length 104 weeks); 1.44 mg/kg/day (rat, strain Alpk:APfSD, males, in feed, site: pancreas, exocrine, lesion: adenoma, dosed 52 weeks, study length 104 weeks); 18.5 mg/kg/day (rat, strain Alpk:APfSD, males, in feed, site: pancreas, exocrine, lesion: adenoma, dosed 104 weeks, study length 104 weeks); 2.93 mg/kg/day (rat, strain Alpk:APfSD, males, in feed, site: testis, lesion: Leydig-cell adenoma, dosed 104 weeks, study length 104 weeks). Moreover, the carcinogen call (rat, strain Fischer 344, males, in feed, site: liver, lesion: hepatocellular carcinoma, dosed 75 weeks, study length 75 weeks) is “positive”.
For the compound `Nc1ccc2c(c1)C(=O)c1ccccc1C2=O`, the TD50 (mouse, strain B6C3F1, females, in feed, site: all sites + liver, lesion: lymphoma + hepatocellular carcinoma, dosed 79 weeks, study length 94 weeks) is 1490 mg/kg/day; the TD50 (mouse, strain B6C3F1, females, in feed, site: all sites, lesion: lymphoma, dosed 79 weeks, study length 94 weeks) is 3160 mg/kg/day; the TD50 (mouse, strain B6C3F1, females, in feed, site: any site (literature study), lesion: several types, types named in the paper, dosed 79 weeks, study length 94 weeks) came out at 1620 mg/kg/day; the TD50 (mouse, strain B6C3F1, females, in feed, site: liver, lesion: hepatocellular adenoma + hepatocellular carcinoma + neoplastic nodule, dosed 79 weeks, study length 94 weeks) worked out at 2820 mg/kg/day; the TD50 (mouse, strain B6C3F1, females, in feed, site: liver, lesion: hepatocellular carcinoma, dosed 79 weeks, study length 94 weeks) is 2820 mg/kg/day; the TD50 (mouse, strain B6C3F1, females, in feed, site: lung, lesion: alveolar/bronchiolar adenoma + alveolar/bronchiolar carcinoma, dosed 79 weeks, study length 94 weeks) was 33400 mg/kg/day. The TD50 by setting is: (mouse, strain B6C3F1, males, in feed, site: any site (literature study), lesion: several types, types named in the paper, dosed 79 weeks, study length 93 weeks) 952 mg/kg/day; (mouse, strain B6C3F1, males, in feed, site: liver, lesion: hepatocellular adenoma + hepatocellular carcinoma + neoplastic nodule, dosed 79 weeks, study length 93 weeks) 798 mg/kg/day; (mouse, strain B6C3F1, males, in feed, site: liver, lesion: hepatocellular adenoma + hepatocellular carcinoma, dosed 79 weeks, study length 93 weeks) 798 mg/kg/day; (mouse, strain B6C3F1, males, in feed, site: liver, lesion: hepatocellular carcinoma, dosed 79 weeks, study length 93 weeks) 755 mg/kg/day; (mouse, strain B6C3F1, males, in feed, site: lung, lesion: alveolar/bronchiolar adenoma + alveolar/bronchiolar carcinoma, dosed 79 weeks, study length 93 weeks) 19400 mg/kg/day; (rat, strain Fischer 344, females, in feed, site: any site (literature study), lesion: several types, types named in the paper, dosed 78 weeks, study length 109 weeks) 124 mg/kg/day (inactive). Also, the TD50 was 759 mg/kg/day (rat, strain Fischer 344, males, in feed, site: any site (literature study), lesion: several types, types named in the paper, dosed 78 weeks, study length 106 weeks); 101 mg/kg/day (rat, strain Fischer 344, males, in feed, site: liver, lesion: hepatocellular adenoma + hepatocellular carcinoma + neoplastic nodule, dosed 78 weeks, study length 106 weeks); 101 mg/kg/day (rat, strain Fischer 344, males, in feed, site: liver, lesion: hepatocellular carcinoma + neoplastic nodule, dosed 78 weeks, study length 106 weeks); 268 mg/kg/day (rat, strain Fischer 344, males, in feed, site: liver, lesion: hepatocellular carcinoma, dosed 78 weeks, study length 106 weeks).
Turning to `ClCc1ccccc1`, the TD50 is, setting by setting: (mouse, strain B6C3F1, females, by gavage, site: forestomach, lesion: carcinoma, dosed 104 weeks, study length 107 weeks) 445 mg/kg/day; (mouse, strain B6C3F1, females, by gavage, site: forestomach, lesion: several types, types named in the paper, dosed 104 weeks, study length 107 weeks) 81 mg/kg/day; (mouse, strain B6C3F1, females, by gavage, site: lung, lesion: several types, types named in the paper, dosed 104 weeks, study length 107 weeks) 337 mg/kg/day; (mouse, strain B6C3F1, males, by gavage, site: all sites, lesion: all vascular tumors, dosed 104 weeks, study length 107 weeks) 454 mg/kg/day; (mouse, strain B6C3F1, males, by gavage, site: forestomach, lesion: carcinoma, dosed 104 weeks, study length 107 weeks) 221 mg/kg/day; (mouse, strain B6C3F1, males, by gavage, site: forestomach, lesion: several types, types named in the paper, dosed 104 weeks, study length 107 weeks) 49.6 mg/kg/day. Besides, the TD50 was 225 mg/kg/day (mouse, strain B6C3F1, males, by gavage, site: liver, lesion: several types, types named in the paper, dosed 104 weeks, study length 107 weeks); 330 mg/kg/day (rat, strain Fischer 344, females, by gavage, site: liver, lesion: neoplastic nodule, dosed 104 weeks, study length 107 weeks); 40.6 mg/kg/day (rat, strain Fischer 344, females, by gavage, site: thyroid gland, lesion: several types, types named in the paper, dosed 104 weeks, study length 107 weeks).
In the case of `c1ccc2n[nH]nc2c1`, the TD50 was 18900 mg/kg/day (mouse, strain B6C3F1, females, in feed, site: any site (literature study), lesion: several types, types named in the paper, dosed 104 weeks, study length 106 weeks); 3890 mg/kg/day (mouse, strain B6C3F1, females, in feed, site: lung, lesion: alveolar/bronchiolar adenoma + alveolar/bronchiolar carcinoma, dosed 104 weeks, study length 106 weeks); 4390 mg/kg/day (mouse, strain B6C3F1, females, in feed, site: lung, lesion: alveolar/bronchiolar carcinoma, dosed 104 weeks, study length 106 weeks); 20300 mg/kg/day (rat, strain Fischer 344, females, in feed, site: brain, lesion: glioma, NOS, dosed 78 weeks, study length 105 weeks); 10100 mg/kg/day (rat, strain Fischer 344, females, in feed, site: liver, lesion: hepatocellular adenoma + hepatocellular carcinoma + neoplastic nodule, dosed 78 weeks, study length 105 weeks); 2720 mg/kg/day (rat, strain Fischer 344, males, in feed, site: liver, lesion: hepatocellular adenoma + hepatocellular carcinoma + neoplastic nodule, dosed 78 weeks, study length 104 weeks). The compound also registered a TD50 (rat, strain Fischer 344, males, in feed, site: liver, lesion: neoplastic nodule, dosed 78 weeks, study length 104 weeks) of 2720 mg/kg/day. The carcinogen call (mouse, strain B6C3F1, males, in feed, site: any site (literature study), lesion: several types, types named in the paper, dosed 104 weeks, study length 106 weeks) was “negative (inactive)” and the carcinogen call (rat, strain Fischer 344, males, in feed, site: brain, lesion: glioma, NOS + oligodendroglioma, dosed 78 weeks, study length 104 weeks) is “a”.
Consider `Nc1ccc(Oc2ccc(N)c(N)c2)cc1`, for which, under “mouse, strain ICR/Jcl, males, in feed, site: liver, lesion: hepatoma, dosed 52 weeks, study length 52 weeks”, the TD50 was 13.3 mg/kg/day.
